The subject of one assay is H. pylori ATCC 43504. The experiment in a line: Minimum Inhibitory Concentration (MIC) blood agar plate growth inhibition. In kind it is cell-based, Helicobacter pylori. On the procedure: Subsequent dilutions were made in ethanol immediately prior to use. […] Subsequent dilutions were made in BHI medium (Brain heart infusion broth, Difco #0037-07-0) immediately prior to use.
(§1) Blood agar base (BAB) was prepared containing 1.5% agar and autoclaved. 20 ml samples of autoclaved BAB were poured into 50 mL tubes and placed in a 56° C. water bath.
The mixed media preparation was poured into a petri dished and allowed to solidify.
(§2) Prior to inoculation of petri plates, bacteria or cultures were examined for morphology under a phase microscope to confirm motility and physical characteristics, e.g., spiral shaped. The organisms were washed off the plate into PBS (Phosphate buffered saline) (80.0 g NaCl, 2.0 g KCl, 2.4 g KH2PO4 11.5 g Na2HPO4 or 24.4 g Na2HPO4/2H2O per 1 liter deionized water, pH 7.2, sterilized by autoclaving) and diluted into BHI at a concentration of 10^8/ml (O.D. of 0.3 units diluted 1:30). Ten microliters of solution containing 10^6 organisms were spread onto a petri plate and grown under microaerophilic conditions for 3 days unless specified. Control organisms were grown under microaerophilic conditions.
(§3) Inhibition of growth was determined by the amount of colonies present within the petri plate. The following factors were used for growth inhibition: ±=0-20 colonies, +=20-50 colonies, ++=50-200 colonies and +++=200+ colonies.

Assay [1] deals with H. pylori (urease positive) ATCC Number 51652. The description is as above. Conditions: Table XVII, Blood agar base + 3% sheep blood. It counts as cell-based, Helicobacter pylori. On the procedure: (§4) Monensin (Sigma Cat. No. M-5273) was dissolved in 100% absolute ethanol (AAPER Alcohol and Chemical Co.) at a concentration of 20 mg/ml. Subsequent dilutions were made in ethanol immediately prior to use. Nigericin (Sigma Cat. No. N-7143) was dissolved in DMSO at 2 mg/ml. Subsequent dilutions were made in BHI medium (Brain heart infusion broth, Difco #0037-07-0) immediately prior to use.
as §1
(§5) 100 μl of a drug (final concentration equivalent to 1:200 of original concentration) and 1.2 ml of sheep blood (Colorado Senun Company # CS-1112) (blood diluted in a 1:1 buffer providing a 3% concentration of blood per 20 ml medium sample) were added to 20 ml sample of media and mixed. The mixed media preparation was poured into a petri dished and allowed to solidify.
as §2, §3

For a further assay, the system named is Staph ATCC 14775. The assay is described as follows: Blood agar plate growth inhibition, control organism. It counts as cell-based. Particulars: Table XV, Non microaerophilic conditions. On the procedure: as §4, §1, §5
as §2, with “Control organisms were grown under microaerophilic conditions.” left out
as §3

Setting [2] is: Tables IX-XIII, final drug concentration 0.098 μg/ml.
The mark [3] stands for this setting: Tables IX-XIII, final drug concentration 0.195 μg/ml.
Setting [4] is: Tables IX-XIII, final drug concentration 0.39 μg/ml.
Where [5] appears, read: Tables IX-XIII, final drug concentration 0.78 μg/ml.
Where [6] appears, read: Tables IX-XIII, final drug concentration 1.56 μg/ml.
Setting [7] is: Tables IX-XIII, final drug concentration 3.125 μg/ml.
Setting [8] is: Tables IX-XIII, final drug concentration 6.25 μg/ml.
Setting [9] is: Tables IX-XIII, final drug concentration 12.5 μg/ml.
The mark [10] stands for this setting: Tables IX-XIII, final drug concentration 25 μg/ml.
Setting [11] is: Tables IX-XIII, final drug concentration 50 μg/ml.
[12] abbreviates: Tables IX-XIII, final drug concentration 100 μg/ml.
Setting [13] is: final drug concentration 0.1 ng/ml.
The mark [14] stands for this setting: final drug concentration 1 ng/ml.
The mark [15] stands for this setting: final drug concentration 10 ng/ml.
Setting [16] is: final drug concentration 100 ng/ml.
[17] abbreviates: final drug concentration 1 μg/ml.
Setting [18] is: final drug concentration 10 μg/ml.

With “26-O Phenylmonensin [Monensin phenyl carbamate]”, the MIC result against H. pylori ATCC 43504 (Tables IX-XIII) is recorded as “MIC = 1.56 μg/ml”. Also, the “growth (amount of colonies present within the petri plate)” value (“growth” below) in the assay on H. pylori ATCC 43504 (setting [2]) was “(+++) (+++=200+ colonies)”; in the assay on H. pylori ATCC 43504 (setting [3]) it was “(+++) (+++=200+ colonies)”; in the assay with H. pylori ATCC 43504 (setting [4]) it was “(++) (++=50-200 colonies)”; in the assay with H. pylori ATCC 43504 (setting [5]), “(++) (++=50-200 colonies)”; in the assay on H. pylori ATCC 43504 (setting [6]) it was “(+) small colonies (+=20-50 colonies)”; in the assay on H. pylori ATCC 43504 (setting [7]), “(±) few small colonies (±=0-20 colonies)”. The “growth” value with H. pylori ATCC 43504 (setting [8]), in the assay on H. pylori ATCC 43504 (setting [9]), with H. pylori ATCC 43504 (setting [10]), in the assay on H. pylori ATCC 43504 (setting [11]) and in the assay on H. pylori ATCC 43504 (setting [12]) was “No growth” each time.

As to `CNc1ccc2oc(C[C@H]3O[C@@]4(CC[C@H]3C)O[C@H]([C@H](C)C(=O)c3ccc[nH]3)[C@H](C)C[C@H]4C)nc2c1C(=O)O` [A23187], the “growth” value in assay [1] (setting [13]) is “(+++) (+++=200+ colonies)”; in assay [1] (setting [14]) it was “(+++) (+++=200+ colonies)”; in assay [1] (setting [15]), “(+++) (+++=200+ colonies)”; in assay [1] (setting [16]), “(+++) (+++=200+ colonies)”; in assay [1] (setting [17]), “No growth”; in assay [1] (setting [18]), “No growth”.

`CC[C@@]1([C@@H]2O[C@@H]([C@H]3O[C@@](O)(CO)[C@H](C)C[C@@H]3C)C[C@@H]2C)CC[C@H]([C@]2(C)CC[C@]3(C[C@H](O)[C@@H](C)[C@@H]([C@@H](C)[C@@H](OC)[C@H](C)C(=O)OCc4ccccc4)O3)O2)O1` [Benzyl Monensin, monensin benzyl ester]: in the assay with H. pylori ATCC 43504 (Tables IX-XIII), the MIC result is “MIC = 25 μg/ml”. In addition, the “growth” value in the assay with H. pylori ATCC 43504 (setting [2]), in the assay with H. pylori ATCC 43504 (setting [3]), in the assay with H. pylori ATCC 43504 (setting [4]), in the assay on H. pylori ATCC 43504 (setting [5]), with H. pylori ATCC 43504 (setting [6]) and in the assay on H. pylori ATCC 43504 (setting [7]) was “(+++) (+++=200+ colonies)” throughout. In addition, the “growth” value with H. pylori ATCC 43504 (setting [8]) is on record as “(+++) (+++=200+ colonies)”; with H. pylori ATCC 43504 (setting [9]), “(++) (++=50-200 colonies)”; in the assay on H. pylori ATCC 43504 (setting [10]), “(±) (±=0-20 colonies)”; in the assay on H. pylori ATCC 43504 (setting [11]), “(±) (±=0-20 colonies)”; with H. pylori ATCC 43504 (setting [12]) it was “(±) (±=0-20 colonies)”.

As to `CCC1(C2OC(C3OC(O)(COC(=O)NC(C)NC(=O)OCC4c5ccccc5-c5ccccc54)C(C)CC3C)CC2C)CCC(C2(C)CCC3(CC(O)C(C)C(C(C)C(OC)C(C)C(=O)O)O3)O2)O1` (centres unmarked) [Fmoc-Ala-monensin, 26-O-[1-(Fmoc-amino)ethylcarbamoyl] monensin], the MIC result with H. pylori ATCC 43504 (Tables IX-XIII) was “MIC = 6.25 μg/ml”. The “growth” value with H. pylori ATCC 43504 (setting [2]), in the assay on H. pylori ATCC 43504 (setting [3]), in the assay on H. pylori ATCC 43504 (setting [4]), in the assay with H. pylori ATCC 43504 (setting [5]), with H. pylori ATCC 43504 (setting [6]) and in the assay on H. pylori ATCC 43504 (setting [7]) was “(+++) (+++=200+ colonies)” each time. In addition, the “growth” value is reported as “(±) (±=0-20 colonies)” with H. pylori ATCC 43504 (setting [8]); “No growth” in the assay with H. pylori ATCC 43504 (setting [9]); “No growth” with H. pylori ATCC 43504 (setting [10]); “No growth” with H. pylori ATCC 43504 (setting [11]); “No growth” with H. pylori ATCC 43504 (setting [12]).

On to `C[C@H](CCC(=O)O)C[C@H](C)C[C@H](C)C(=O)/C=C(\O)[C@H](C)C[C@H](C)C/C=C/[C@@H](C)[C@@H](O)[C@@H](C)[C@@H](O)C[C@@H]1CC[C@@](C)([C@H]2CC[C@@](C)([C@@H](C)O)O2)O1` [Ionomycin, ionomycin], for which the “growth” value in assay [1] (setting [13]), in assay [1] (setting [14]), in assay [1] (setting [15]), in assay [1] (setting [16]), in assay [1] (setting [17]) and in assay [1] (setting [18]) was “(+++) (+++=200+ colonies)” in each case.

For the compound `CC[C@@H](C(=O)[C@@H](C)[C@@H](O)[C@H](C)CCc1ccc(C)c(O)c1C(=O)O)[C@H]1O[C@](CC)([C@H]2CC[C@](O)(CC)[C@H](C)O2)C[C@@H]1C` [Lasalocid, lasalocid], the “growth” value is given as “(+++) (+++=200+ colonies)” in the assay with H. pylori ATCC 43504 (Table VII, urease positive, final drug concentration 10 μg/ml); “(+++) (+++=200+ colonies)” in assay [1] (setting [13]); “(+++) (+++=200+ colonies)” in assay [1] (setting [14]); “(+++) (+++=200+ colonies)” in assay [1] (setting [15]); “(+++) (+++=200+ colonies)” in assay [1] (setting [16]); “(+++) (+++=200+ colonies)” in assay [1] (setting [17]). The “growth” value in assay [1] (setting [18]) is given as “(+++) (+++=200+ colonies)”; in the assay on Staph ATCC 14775 (setting [15]) it was “(+++) (+++=200+ colonies)”; in the assay with Staph ATCC 14775 (setting [16]), “(+++) (+++=200+ colonies)”; in the assay with Staph ATCC 14775 (setting [17]) it was “(+++) (+++=200+ colonies)”; in the assay with Staph ATCC 14775 (setting [18]) it was “No growth”.

For the compound `CCC1(C2OC(C3OC(O)(COC(=O)Nc4cccnc4)C(C)CC3C)CC2C)CCC(C2(C)CCC3(CC(O)C(C)C(C(C)C(OC)C(C)C(=O)O)O3)O2)O1` (centres unmarked) [Monensin pyridyl carbamate, 26-O-(3-pyridylcarbamoyl) monensin], the MIC result against H. pylori ATCC 43504 (Tables IX-XIII) is listed as “MIC = 3.12 μg/ml”. For the same compound, the “growth” value is “(+++) (+++=200+ colonies)” in the assay on H. pylori ATCC 43504 (setting [2]); “(+++) (+++=200+ colonies)” in the assay with H. pylori ATCC 43504 (setting [3]); “(+++) (+++=200+ colonies)” in the assay with H. pylori ATCC 43504 (setting [4]); “(+++) (+++=200+ colonies)” in the assay on H. pylori ATCC 43504 (setting [5]); “(++) (++=50-200 colonies)” in the assay with H. pylori ATCC 43504 (setting [6]); “(±) (±=0-20 colonies)” with H. pylori ATCC 43504 (setting [7]). Moreover, the “growth” value with H. pylori ATCC 43504 (setting [8]), in the assay on H. pylori ATCC 43504 (setting [9]), with H. pylori ATCC 43504 (setting [10]), in the assay with H. pylori ATCC 43504 (setting [11]) and in the assay with H. pylori ATCC 43504 (setting [12]) was “No growth” each time.
